≈ marks a conversion by molar mass, not a printed value. Where two headings read alike, the source gives them in different places.
What was measured:
[1] = tested on: S. agalactiae (group B) ATCC 12400; experiment: MIC, microdilution method (9.1); assay type: cell-based, Streptococcus agalactiae; details: Streptococcus agalactiae, ATCC12400, 18 h, read-out: MIC
Method in brief: (§1)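 Compound concentrations tested: 0.50-128 mg/L final, two-fold steps. Medium was Mueller Hinton broth; final inoculum 5×10^5 CFU/ml; incubation at 37° C. without CO2 enrichment.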

S. mitis CIP 103335 = experiment: MIC, microdilution method (9.1); assay type: cell-based, Streptococcus mitis; details: Streptococcus mitis, CIP103335, 18 h, read-out: MIC
Method in brief: as §1

[2] = tested on: S. epidermidis ATCC 12228; experiment: MIC, microdilution method (9.1); assay type: cell-based, Staphylococcus epidermidis; details: Staphylococcus epidermidis, ATCC12228, read after 18 h, read-out: MIC
Method in brief: as §1

S. epidermidis CIP 81.55 = experiment: MIC, microdilution method (9.1); assay type: cell-based, Staphylococcus epidermidis; details: Staphylococcus epidermidis, CIP81, read after 18 h, read-out: MIC
Method in brief: as §1

[3] = tested on: S. epidermidis CIP 103627; experiment: MIC, microdilution method (9.1); assay type: cell-based, Staphylococcus epidermidis; details: Staphylococcus epidermidis, CIP103627, read after 18 h, read-out: MIC
Method in brief: as §1

[4] = tested on: S. aureus ATCC 33592 (MRSA); experiment: MIC, microdilution method (9.1); assay type: cell-based, Staphylococcus aureus; details: Staphylococcus aureus, read after 18 h, read-out: MIC
Method in brief: as §1

S. aureus CIP 65.6 = experiment: MIC, microdilution method (9.1); assay type: cell-based, Staphylococcus aureus; details: Staphylococcus aureus, CIP65, read after 18 h, read-out: MIC
Method in brief: as §1

S. aureus ATCC 6538 = experiment: MIC, microdilution method (9.1); assay type: cell-based, Staphylococcus aureus; details: Staphylococcus aureus, ATCC6538, read after 18 h, read-out: MIC
Method in brief: as §1

S. aureus ATCC 29213 = experiment: MIC, microdilution method (9.1); assay type: cell-based, Staphylococcus aureus; details: Staphylococcus aureus, ATCC29213, read after 18 h, read-out: MIC
Method in brief: as §1

S. aureus ATCC 25923 = experiment: MIC, microdilution method (9.1); assay type: cell-based, Staphylococcus aureus; details: Staphylococcus aureus, ATCC25923, read after 18 h, read-out: MIC
Method in brief: as §1

[5] = tested on: S. aureus CIP 65.25 (MRSA); experiment: MIC, microdilution method (9.1); assay type: cell-based, Staphylococcus aureus; details: Staphylococcus aureus, read after 18 h, read-out: MIC
Method in brief: as §1

S. aureus CIP 103428 = experiment: MIC, microdilution method (9.1); assay type: cell-based, Staphylococcus aureus; details: Staphylococcus aureus, CIP103428, read after 18 h, read-out: MIC
Method in brief: as §1

[6] = tested on: S. aureus ATCC 106414 (VISA); experiment: MIC, microdilution method (9.1); assay type: cell-based, Staphylococcus aureus; details: Staphylococcus aureus, read after 18 h, read-out: MIC
Method in brief: as §1

S. aureus SA-1199B = experiment: MIC, microdilution method (9.1); assay type: cell-based, Staphylococcus aureus; details: Staphylococcus aureus, SA1199B, 18 h
Method in brief: as §1

S. aureus ATCC 9144 = experiment: MIC, microdilution method (9.1); assay type: cell-based, Staphylococcus aureus; details: Staphylococcus aureus, ATCC9144, read after 18 h, read-out: MIC
Method in brief: as §1

E. faecalis ATCC 29212 = experiment: MIC, microdilution method (9.1); assay type: cell-based, Enterococcus faecalis; details: Enterococcus faecalis, ATCC29212, 18 h, read-out: MIC
Method in brief: as §1

[7] = tested on: 29 bacterial strains belonging to 17 different species; experiment: MIC determination, overall statements on the bacterial panel; assay type: cell-based; details: summary of MIC results
Description: The microdilution method recommended by the Clinical and Laboratory Standard Institute [M07-A8, Vol. 29, No. 2] was used. The activity of indolic compounds was tested against 29 bacterial strains belonging to 17 different species and 12 different genera (Staphylococcus, Streptococcus, Enterococcus, Listeria, Bacillus, Haemophilus, Escherichia, Klebsiella, Enterobacter, Serratia, Pseudomonas, and Acinetobacter). Bacterial inocula were prepared in Mueller Hinton broth (MH2, bioMérieux, Marcy L'Etoile, France), supplemented with 10% sheep blood for fastidious species (i.e., Streptococcus pneumoniae and Haemophilus influenzae). They were dispensed in 96 well microtiter plates (5×10^5 CFU/ml of final inoculum). Indolic compounds were added to the wells as to obtain two-fold serial concentrations (0.50-128 mg/L of final concentrations). Plates were incubated at 37° C. in ambient air, or at 37° C. in 5% CO2 enriched atmosphere for fastidious species. […] Drug-free cultures served as growth controls. Cultures receiving gentamicin, ciprofloxacin or cefotaxime served as positive controls.

[8] = tested on: Klebsiella pneumoniae API ATCC 35657; experiment: MIC, microdilution method (9.1); assay type: cell-based; details: ATCC35657, 18 h, read-out: MIC
Method in brief: as §1

[9] = tested on: Escherichia coli ATCC 25922; experiment: MIC, microdilution method (9.1); assay type: cell-based; details: ATCC25922, 18 h
Method in brief: as §1

S. pneumoniae ATCC 49619 = experiment: MIC, microdilution method (9.1); assay type: cell-based; details: Streptococcus pneumoniae, ATCC49619, 10% sheep blood, 5% CO2, 18 h
Method in brief: (§2)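 Broth microdilution per CLSI M07-A8 in Mueller Hinton broth, final inoculum 5×10^5 CFU/ml. Indolic compounds tested as two-fold serial dilutions, 0.50-128 mg/L final. Plates incubated at 37° C. in ambient air; fastidious species received 10% sheep blood and 5% CO2.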

[10] = tested on: Pseudomonas aeruginosa CIP 5933; experiment: MIC, microdilution method (9.1); assay type: cell-based; details: CIP5933, 18 h, read-out: MIC
Method in brief: as §1

[11] = tested on: Bacillus subtilis CIP 5262; experiment: MIC, microdilution method (9.1); assay type: cell-based; details: CIP5262, 18 h, read-out: MIC
Method in brief: as §1

[12] = tested on: Enterobacter cloacae ATCC13047; experiment: MIC, microdilution method (9.1); assay type: cell-based; details: 18 h
Method in brief: as §1

[13] = tested on: Haemophilus influenzae ATCC 49766; experiment: MIC, microdilution method (9.1); assay type: cell-based
Method in brief: as §2

[14] = tested on: Acinetobacter baumanii ATCC 19606; experiment: MIC, microdilution method (9.1); assay type: cell-based; details: Acinetobacter baumannii, ATCC19606, 18 h, read-out: MIC
Method in brief: as §1

[15] = tested on: Serratia marcescens CIP 103551; experiment: MIC, microdilution method (9.1); assay type: cell-based; details: CIP103551, 18 h
Method in brief: as §1

[16] = tested on: Listeria innocua CIP 80.11; experiment: MIC, microdilution method (9.1); assay type: cell-based; details: CIP80, 18 h, read-out: MIC
Method in brief: as §1

E. faecium CIP 54.32 = experiment: MIC, microdilution method (9.1); assay type: cell-based, Enterococcus faecium; details: Enterococcus faecium, CIP54, 18 h, read-out: MIC
Method in brief: as §1

S. pneumoniae ATCC 6303 = experiment: MIC, microdilution method (9.1); assay type: cell-based, Streptococcus pneumoniae; details: Streptococcus pneumoniae, ATCC6303, 10% sheep blood, 5% CO2, 18 h, read-out: MIC
Method in brief: as §2

[17] = tested on: HCT116 (human colon tumor); experiment: In vitro cytotoxicity; assay type: cell-based; details: HCT-116, HCT116, from 100 μM to 0.005 μM in DMSO, duplicate
[18] = tested on: S. pyogenes (group A) CIP 104226; experiment: MIC, microdilution method (9.1); assay type: cell-based, Streptococcus pyogenes; details: Streptococcus pyogenes, CIP104226, 18 h, read-out: MIC
Method in brief: as §1

CC(C)(C)OC(=O)NCC(NC(=O)c1ccccc1)c1c[nH]c2ccc(Br)cc12 (centres unmarked) [Compound 8, t-Butyl (2-benzamido-2-(5-bromo-1H-indol-3-yl)ethyl) carbamate]
MIC [1]: > 128 µg/mL | MIC (S. mitis CIP 103335): > 128 µg/mL | MIC [2]: > 128 µg/mL | MIC (S. epidermidis CIP 81.55): > 128 µg/mL | MIC [3]: > 128 µg/mL | MIC [4]: > 128 µg/mL | MIC (S. aureus CIP 65.6): > 128 µg/mL | MIC (S. aureus ATCC 6538): > 128 µg/mL | MIC (S. aureus ATCC 29213): > 128 µg/mL | MIC (S. aureus ATCC 25923): > 128 µg/mL | MIC [5]: > 128 µg/mL | MIC (S. aureus CIP 103428): > 128 µg/mL | MIC [6]: > 128 µg/mL | MIC (S. aureus SA-1199B): > 128 µg/mL | MIC (S. aureus ATCC 9144): > 128 µg/mL | MIC (E. faecalis ATCC 29212): > 128 µg/mL | intrinsic antibacterial activity (in words) [7]: lack of intrinsic antibacterial activity | MIC [8]: > 128 µg/mL | MIC [9]: > 128 µg/mL | MIC (S. pneumoniae ATCC 49619): > 128 µg/mL | MIC [10]: > 128 µg/mL | MIC [11]: > 128 µg/mL | MIC [12]: > 128 µg/mL | MIC ([13]; ATCC49766, Haemophilus influenzae ATCC 49766, 10% sheep blood, 5% CO2, 18 h, read-out: MIC): > 128 µg/mL | MIC [14]: > 128 µg/mL | MIC [15]: > 128 µg/mL | MIC [16]: > 128 µg/mL | MIC (E. faecium CIP 54.32): > 128 µg/mL | MIC (S. pneumoniae ATCC 6303): > 128 µg/mL | IC50 ([17]; first value): 6.14 µM | IC50 ([17]; second value): 7.33 µM | MIC [18]: > 128 µg/mL

CC(C)(C)OC(=O)NCC(NC(=O)C(F)(F)F)c1c[nH]c2ccc(Br)cc12 (centres unmarked) [Compound 9, tert-Butyl (2-(5-bromo-1H-indol-3-yl)-2-(2,2,2-trifluoroacetamido)ethyl)carbamate]
MIC [1]: > 128 µg/mL | MIC (S. mitis CIP 103335): > 128 µg/mL | MIC [2]: > 128 µg/mL | MIC (S. epidermidis CIP 81.55): > 128 µg/mL | MIC [3]: > 128 µg/mL | MIC [4]: 128 µg/mL (≈ 284 µM) | MIC (S. aureus CIP 65.6): 128 µg/mL (≈ 284 µM) | MIC (S. aureus ATCC 6538): 128 µg/mL (≈ 284 µM) | MIC (S. aureus ATCC 29213): 64 µg/mL (≈ 142 µM) | MIC (S. aureus ATCC 25923): > 128 µg/mL | MIC [5]: 128 µg/mL (≈ 284 µM) | MIC (S. aureus CIP 103428): 128 µg/mL (≈ 284 µM) | MIC [6]: 128 µg/mL (≈ 284 µM) | MIC (S. aureus SA-1199B): 128 µg/mL (≈ 284 µM) | MIC (S. aureus ATCC 9144): > 128 µg/mL | MIC (E. faecalis ATCC 29212): > 128 µg/mL | intrinsic antibacterial activity (in words) [7]: lack of intrinsic antibacterial activity | MIC [8]: > 128 µg/mL | MIC [9]: > 128 µg/mL | MIC (S. pneumoniae ATCC 49619): > 128 µg/mL | MIC [10]: > 128 µg/mL | MIC [11]: 128 µg/mL (≈ 284 µM) | MIC [12]: > 128 µg/mL | MIC ([13]; Haemophilus influenzae, ATCC49766, 18 h): > 128 µg/mL | MIC [14]: > 128 µg/mL | MIC [15]: > 128 µg/mL | MIC [16]: > 128 µg/mL | MIC (E. faecium CIP 54.32): > 128 µg/mL | MIC (S. pneumoniae ATCC 6303): > 128 µg/mL | MIC [18]: > 128 µg/mL
